Results: patent US5952349A, “Muscarinic antagonists for treating memory loss” (Schering Corporation, priority 1997, dated 1999)

target: T1, cloned human m2 muscarinic receptor (Homo sapiens, UniProt P08172); assay: Muscarinic binding activity: inhibition of 3H-QNB binding, m2 (and m2 selectivity); details: not given
T1 construct: expressed in transfected cells; host or cells: CHO cells, stably transfected (membranes)
T1 sequence (P08172 1-466): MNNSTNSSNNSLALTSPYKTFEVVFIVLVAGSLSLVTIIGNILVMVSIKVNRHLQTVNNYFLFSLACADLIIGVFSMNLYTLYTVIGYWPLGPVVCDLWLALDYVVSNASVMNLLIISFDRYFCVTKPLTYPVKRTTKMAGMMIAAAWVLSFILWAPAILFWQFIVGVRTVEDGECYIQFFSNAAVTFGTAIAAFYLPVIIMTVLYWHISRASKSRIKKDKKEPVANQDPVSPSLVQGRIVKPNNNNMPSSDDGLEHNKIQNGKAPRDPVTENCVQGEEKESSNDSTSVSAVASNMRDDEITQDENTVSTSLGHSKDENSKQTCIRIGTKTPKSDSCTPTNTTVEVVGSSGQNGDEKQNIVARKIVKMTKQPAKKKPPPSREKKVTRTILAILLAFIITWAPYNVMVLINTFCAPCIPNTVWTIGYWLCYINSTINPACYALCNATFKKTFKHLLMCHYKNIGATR

Compound	Ki
C=CCN(c1ccc(S(=O)(=O)c2ccc(OC)cc2)cc1)C1CCN(C2CCCCC2)CC1 [Example 2I]	3.7 nM
COc1ccc(S(=O)(=O)c2ccc(N(C)C3CCN(C4CCCCC4)CC3)cc2)cc1 [Example 2G]	15.2 nM

same assay, conditions: 3H-QNB binding, membranes of transfected CHO cells, 25° C., 90 minutes, pH 7.4; read-out: Ki, m2

Compound	Ki
CC(=O)Nc1ccc([S+]([O-])c2ccc(N(C#N)C3CCN(C4CCCCC4)CC3)cc2)cc1 (stereo not shown) [Example 2AM]	13.7 nM
N#CN(c1ccc(S(=O)(=O)c2ccc3c(c2)OCO3)cc1)C1CCN(C2CCCCC2)CC1 [Example 2AC]	0.44 nM
COc1ccc([S+]([O-])c2ccc(N(C#N)C3CCN(C4CCCCC4)CC3)cc2)cc1 (stereo not shown) [Example 2E]	9 nM
N#CN(c1ccc(S(=O)(=O)C2CCCCC2)cc1)C1CCN(C2CCCCC2)CC1 [Example 2AK]	18.8 nM

same assay, conditions: Ki for m1 divided by Ki for m2; higher = greater m2 selectivity

Compound	m2 Selectivity Ratio (Ki,m1/Ki,m2)
CC(=O)Nc1ccc([S+]([O-])c2ccc(N(C#N)C3CCN(C4CCCCC4)CC3)cc2)cc1 (stereo not shown) [Example 2AM]	15.5
C=CCN(c1ccc(S(=O)(=O)c2ccc(OC)cc2)cc1)C1CCN(C2CCCCC2)CC1 [Example 2I]	12.7
N#CN(c1ccc(S(=O)(=O)c2ccc3c(c2)OCO3)cc1)C1CCN(C2CCCCC2)CC1 [Example 2AC]	22.7
COc1ccc([S+]([O-])c2ccc(N(C#N)C3CCN(C4CCCCC4)CC3)cc2)cc1 (stereo not shown) [Example 2E]	21.0
COc1ccc(S(=O)(=O)c2ccc(N(C)C3CCN(C4CCCCC4)CC3)cc2)cc1 [Example 2G]	18.8
N#CN(c1ccc(S(=O)(=O)C2CCCCC2)cc1)C1CCN(C2CCCCC2)CC1 [Example 2AK]	17.2

target: T2, cloned human m1 muscarinic receptor (Homo sapiens, UniProt P11229); assay: Muscarinic binding activity: inhibition of 3H-QNB binding, m1; details: not given
T2 construct: expressed in transfected cells; host or cells: CHO cells, stably transfected (membranes)
T2 sequence (P11229 1-460): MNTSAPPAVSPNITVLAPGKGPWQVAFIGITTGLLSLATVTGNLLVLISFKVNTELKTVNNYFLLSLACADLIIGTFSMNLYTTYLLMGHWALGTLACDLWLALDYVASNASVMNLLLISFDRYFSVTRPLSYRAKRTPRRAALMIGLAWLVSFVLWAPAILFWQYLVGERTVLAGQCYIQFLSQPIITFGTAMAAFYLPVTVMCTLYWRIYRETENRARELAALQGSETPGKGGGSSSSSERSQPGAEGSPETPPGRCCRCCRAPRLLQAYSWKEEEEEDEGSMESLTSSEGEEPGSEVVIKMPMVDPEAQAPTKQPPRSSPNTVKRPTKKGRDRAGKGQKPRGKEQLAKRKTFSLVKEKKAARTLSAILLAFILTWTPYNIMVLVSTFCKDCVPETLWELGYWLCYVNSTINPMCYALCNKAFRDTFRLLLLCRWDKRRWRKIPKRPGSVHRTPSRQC

Compound	Ki
C=CCN(c1ccc(S(=O)(=O)c2ccc(OC)cc2)cc1)C1CCN(C2CCCCC2)CC1 [Example 2I]	47.1 nM
COc1ccc(S(=O)(=O)c2ccc(N(C)C3CCN(C4CCCCC4)CC3)cc2)cc1 [Example 2G]	285 nM

same assay, conditions: 3H-QNB binding, membranes of transfected CHO cells, 25° C., 90 minutes, pH 7.4; read-out: Ki, m1

Compound	Ki
CC(=O)Nc1ccc([S+]([O-])c2ccc(N(C#N)C3CCN(C4CCCCC4)CC3)cc2)cc1 (stereo not shown) [Example 2AM]	212 nM
N#CN(c1ccc(S(=O)(=O)c2ccc3c(c2)OCO3)cc1)C1CCN(C2CCCCC2)CC1 [Example 2AC]	10 nM
COc1ccc([S+]([O-])c2ccc(N(C#N)C3CCN(C4CCCCC4)CC3)cc2)cc1 (stereo not shown) [Example 2E]	189 nM
N#CN(c1ccc(S(=O)(=O)C2CCCCC2)cc1)C1CCN(C2CCCCC2)CC1 [Example 2AK]	232 nM

target: T3, cloned human m4 muscarinic receptor (Homo sapiens, UniProt P08173); assay: Muscarinic binding activity: inhibition of 3H-QNB binding, m4 (and m4 selectivity); details: not given
T3 construct: expressed in transfected cells; host or cells: CHO cells, stably transfected (membranes)
T3 sequence (P08173 1-479): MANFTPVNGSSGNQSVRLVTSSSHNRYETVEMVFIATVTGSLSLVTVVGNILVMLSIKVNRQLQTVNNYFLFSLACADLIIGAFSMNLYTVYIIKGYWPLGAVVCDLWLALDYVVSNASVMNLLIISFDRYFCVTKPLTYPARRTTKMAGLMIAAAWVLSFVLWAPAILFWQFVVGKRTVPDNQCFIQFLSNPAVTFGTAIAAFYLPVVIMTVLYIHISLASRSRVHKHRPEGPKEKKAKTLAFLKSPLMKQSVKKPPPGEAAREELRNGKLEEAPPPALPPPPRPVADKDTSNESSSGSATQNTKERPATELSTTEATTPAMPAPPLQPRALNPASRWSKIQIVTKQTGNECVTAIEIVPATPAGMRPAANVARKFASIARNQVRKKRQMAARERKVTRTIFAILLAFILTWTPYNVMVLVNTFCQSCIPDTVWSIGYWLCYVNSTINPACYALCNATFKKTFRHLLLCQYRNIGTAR

Compound	Ki
C=CCN(c1ccc(S(=O)(=O)c2ccc(OC)cc2)cc1)C1CCN(C2CCCCC2)CC1 [Example 2I]	10.1 nM
COc1ccc(S(=O)(=O)c2ccc(N(C)C3CCN(C4CCCCC4)CC3)cc2)cc1 [Example 2G]	50 nM

same assay, conditions: 3H-QNB binding, membranes of transfected CHO cells, 25° C., 90 minutes, pH 7.4; read-out: Ki, m4

Compound	Ki
CC(=O)Nc1ccc([S+]([O-])c2ccc(N(C#N)C3CCN(C4CCCCC4)CC3)cc2)cc1 (stereo not shown) [Example 2AM]	41.4 nM
N#CN(c1ccc(S(=O)(=O)c2ccc3c(c2)OCO3)cc1)C1CCN(C2CCCCC2)CC1 [Example 2AC]	1.6 nM
COc1ccc([S+]([O-])c2ccc(N(C#N)C3CCN(C4CCCCC4)CC3)cc2)cc1 (stereo not shown) [Example 2E]	39.3 nM
N#CN(c1ccc(S(=O)(=O)C2CCCCC2)cc1)C1CCN(C2CCCCC2)CC1 [Example 2AK]	25.5 nM

same assay, conditions: Ki for m4 divided by Ki for m2

Compound	m4 Selectivity Ratio (Ki,m4/Ki,m2)
CC(=O)Nc1ccc([S+]([O-])c2ccc(N(C#N)C3CCN(C4CCCCC4)CC3)cc2)cc1 (stereo not shown) [Example 2AM]	3.0
C=CCN(c1ccc(S(=O)(=O)c2ccc(OC)cc2)cc1)C1CCN(C2CCCCC2)CC1 [Example 2I]	2.7
N#CN(c1ccc(S(=O)(=O)c2ccc3c(c2)OCO3)cc1)C1CCN(C2CCCCC2)CC1 [Example 2AC]	3.6
COc1ccc([S+]([O-])c2ccc(N(C#N)C3CCN(C4CCCCC4)CC3)cc2)cc1 (stereo not shown) [Example 2E]	4.4
COc1ccc(S(=O)(=O)c2ccc(N(C)C3CCN(C4CCCCC4)CC3)cc2)cc1 [Example 2G]	3.3
N#CN(c1ccc(S(=O)(=O)C2CCCCC2)cc1)C1CCN(C2CCCCC2)CC1 [Example 2AK]	1.4

test system: m2 muscarinic; assay: not given; details: Baumgold et al., Eur. J. of Pharmacol., 251, (1994) 315-317; cited from earlier work

Compound	m2 muscarinic antagonist selectivity
C[C@H]1CC[C@@H]2N(C1)C[C@H]1[C@@H]3C[C@H]4[C@@H](CC(=O)[C@H]5C[C@@H](Cl)CC[C@@]54C)[C@@H]3CC[C@H]1[C@]2(C)O [3-α-chloroimperialine]	highly selective m2 muscarinic antagonist
